Results on four molecules are retold here after patent publication US11773108B2, “Indene derivatives useful in treating pain and inflammation” (TARO PHARMACEUTICALS INC., priority 2018, dated 2023).

Each structure is given as a SMILES string. pEC50, pIC50: −log10 of the molar value.

Data set [1] has as its system T cells isolated from mouse spleens. In words: T cell proliferation (anti-CD3/anti-CD28 dynabeads, CCK-8 assay). The format is cell-based. Particulars: 72 hours, read-out: Scoring: IC50, cell proliferation. How it is done: weeks old. Cells were harvested under sterile conditions by forcing each spleen though a cell filter (pore size 100 μm diameter). A homogenous cell suspension was obtained by washing the cells in fresh medium and passing cells through a smaller cell filter (pore size 70 μm).
Untouched T cells were isolated using the Pan T cell isolation kit (Miltenyi Biotech). Briefly, cells were counted and incubated with the required volume of antibody cocktail for 5 minutes at 4° C. before addition of microbeads and incubation for 10 minutes at 4° C. Labeled cells were retained in a magnetic column while unlabeled cells (T cells) passed through the column and were retained for use in the assay.
Cell viability was assessed by Trypan Blue exclusion and found to be >99% prior to transfer to plates. Isolated T cells were seeded out in 96 well plates at a density of 50,000 cells per well and allowed to incubate for 60 minutes in a humidified cell culture (37° C., 5% CO2) incubator prior to compound treatment. The media used for this assay (TexMACS, Miltenyi Biotech) was previously optimized for proliferation of T cells in serum free conditions.
Representative compounds of the invention (i.e., test compounds) were prepared as 30 mM stocks in 100% DMSO. Test compounds were initially diluted in media to yield 3 mM stocks before an additional 1:10 dilution in media was performed to yield working stocks of 300 μM (1% DMSO). Subsequent dilutions were performed in media (supplemented with 1% DMSO). When added to the assay plates (1:10 dilution), these yielded final concentrations in the assay plates of in 0.1% DMSO. The reference compound, Cyclosporin A, was prepared in an identical manner as above.
Unstimulated and Stimulated Control wells received an identical volume of TexMACS media/1% DMSO at this time, resulting in a final concentration of 0.1% DMSO across the plate. […] After removal of 60% of the supernatant for subsequent ELISA, cell proliferation was assessed using the CCK-8 assay. […]
On the technique in general: Formazan colour is commonly taken as a measure of viable cells.

For data set [2], the system named is rat dorsal root ganglion (DRG) cells. Put plainly: Rat dorsal root ganglion (DRG) excitability response to electrical field stimulation. The format is cell-based. The conditions noted are these: adult rat DRG cells, Ca5 Ca2+ indicator, six concentrations, highest typically 30 μM, read-out: Scoring: EC50, modulation of rat DRG excitability. How it is done:
Rat Dorsal Root Ganglion Excitability Response of Representative Compounds Dorsal root ganglions (DRGs) were dissected from adult rats. The tissue was processed, and cells were seeded into cell culture plates (48 center wells of one quadrant in 384-well plates) and cultured for 2 days prior to Electrical field stimulation (EFS). To visualize the neuronal excitability response, intracellular Ca^+2 transients were monitored using the Ca^+2 indicator, Ca5. Ca5 was added to the cultures 1 h prior to EFS. Representative compounds of the invention (i.e., test compounds) and reference compound, tetracaine, were added in concentration-response format encompassing six concentrations, performed in duplicate. The highest concentration tested was typically 30 μM with 1 in 3 dilutions generating the subsequent concentrations.
Effects on DRG excitability by the test compounds and standard were evaluated using four EFS protocols as disclosed in Table 2.
Experimental results were performed using two seperate sets of plates using separate test compound and standard dilutions, to provide n=2. In the first set of experiments, compounds were added 24 h prior to EFS to increase the possibility to also detect more long-term compound effects. In the second set of experiments the compounds were added directly prior to EFS. Excitability response to EFS was analyzed as the average fluorescence ratio (peak/baseline) change per well. All plates were evaluated using high content imaging equipment post-EFS, imaging the Ca5 background staining to detect any possibile compound-related toxic effects.
Average response by the reference compound, tetracaine, was 4.05 μM.

The test system of the next data set is Mice (male, C57BL/6). In words: Formalin pain assay in mice. The format is in vivo, mouse. Particulars: 2.5% formalin in left hind paw, time spent flinching/licking/biting. The procedure: Mice (male, C57BL/6) were placed singly in a Perspex chamber for approximately 30 min on three successive days to acclimate and thereby reduce stress-induced behaviors. On the fourth day, the experimental animals received a 25 μl injection of 2.5% formalin beneath the left plantar skin using a 29-gauge syringe. […] The total time spent on flinches/licking/biting of the hind paw was recorded by visual observation for every 5 min period/interval for total observation duration of 60 min in two phases, the early phase (0-5 min) and the late phase (15-40 min). Observers were blinded to the treatment group allocation.
For test compounds, % protection from 0-60 min was used to assess activity. Scoring for the test compounds was as follows: “A” represents a % protection of 81 to 100%, “B” represents a % protection of 61 to 80%, “C” represents a % protection of 31 to 60% and “D” represents a % protection of 0 to 30%.

Data set [3] in a line: Metabolism by human liver microsomes. The format is in vitro ADME. Particulars: human liver microsomes 1 mg/mL protein, 10 μM, in the presence of NADPH, LC-MS/MS. How it is done: Representative compounds of the invention (i.e., test compounds) and the positive control, 7-ethoxycoumarin, were prepared as stock solutions at 10 mM in DMSO and eventually diluted to 10 μM in the test plate, with an appropriate amount of acetonitrile and tris HCl buffer. Final DMSO and acetonitrile concentrations were […] and 0.5% respectively. NADPH was prepared in tris HCl buffer to a stock of 10 mM. A frozen aliquot of liver microsomes was retrieved from the freezer (−80° C.) and thawed by placing the tube on wet ice. After thawing, the tubes were gently mixed and the required amount, transferred to tris HCl buffer. Test compounds or positive control were pre-incubated, separately, for 10 minutes, with liver microsomes (1 mg/mL protein), at 37° C., in 100 mM Tris HCl at pH 7.5. After preincubation the reaction was started by adding 1 mM NADPH (pre-equilibrated to 30° C.) and the reaction allowed to proceed for 60 minutes. At 60 minutes, a 50 μL aliquot was removed and quenched with 200 uL of acetonitrile containing a mixture of internal standards (Tolbutamide (500 ng/mL) and Telmistartan (500 ng/mL)) and vortexed then centrifuged at 4000 rpm for 10 minutes (Eppendorf 5810R). The supernatant was transferred to a 96 well plate for LC-MS/MS analysis.
An LC-MS/MS method was devised for the test compounds and the control, using a AB Sciex API 4000 system coupled to a NEXAR™ UHPLC (Shimadzu) system. Analytes were separated on a Phenomenex Kinetex C18 column (50×2.1 mm, 5 μm) using a gradient that was appropriate for each compound, at a flow rate of 1 ml/minute, utilizing a mobile phase of 0.1% formic acid in MILLI-Q™ water (A) and 0.1% formic acid in acetonitrile (B). The MS instrument was operated in positive mode (ESI+)/negative (ESI−). The multiple reaction monitoring (MRM) transition for test and control compounds was used for the LC-MS/MS analysis. MRM transitions for control compound 7-ethoxycoumarinm were Quadropole 1: 191.0, Quadropole 3:163.0, dwell time: 75 msec, using curtain gas settings of 5 V, ion-spray voltage of 5500 V, temperature of 50° C. and gas settings for nebulizer and auxiliary set to 30 and 40 psi, respectively. The interface heater was kept on. Entrance potential and collision cell exit potential were varied to tune for a specific compound.
Using a suitable LC-MS/MS method, the percentage of drug remaining at 60 minutes ([…]) was assessed by comparing the average analyte to internal standard area ratio at 60 minutes to the average analyte to internal standard area ratio at 0 time control, as a percentage, from a 5 to 10 μL sample injection.
According to the above assay, the test compounds listed in Table 7 below were active in the Human liver microsome assay at 10 μM and the % of drug remaining after 60 minutes (PDR60), in the presence of NADPH, was assessed by LC-MS/MS. Average PDR60 for the standard compound, 7-ethoxycoumarin was <=65% in the presence of NADPH. Scoring for the test compounds, in the presence of NADPH, was as follows: “A” represents a PDR60 of 81 to 100%, “B” represents a PDR60 of 61 to 80%, “C” represents a PDR60 of 31 to 60% and “D” represents a PDR60 of 0 to 30%.
A general note: Liver microsomes are vesicles of endoplasmic reticulum, rich in cytochrome P450 enzymes.

For `C[C@@H]1CC[C@@]2(OC1)O[C@H]1C[C@H]3[C@H](CO)[C@@H]([C@@]4(C)Cc5cn[nH]c5C[C@@H]4CO)CC[C@]3(C)[C@H]1[C@@H]2C` [Ia-1, ((5R,6S)-5-((2R,3S,3aR,3bS,5′R,6S,7R,7aS,8aS)-7-(hydroxymethyl)-3,3b,5′-trimethyltetradecahydrospiro[indeno[2,1-b]furan-2,2′-pyran]-6-yl)-5-methyl-4,5,6,7-tetrahydro-1H-indazol-6-yl)methanol], the pIC50 in data set [1] was 4.82 to 5.82.

Usually pEC50 stands for the EC50 on a negative log10 scale, so that one unit is a factor of ten. With `C[C@@H]1CC[C@@]2(OC1)O[C@H]1C[C@H]3[C@H](CN)[C@@H]([C@@]4(C)Cc5cn[nH]c5C[C@@H]4CO)CC[C@]3(C)[C@H]1[C@@H]2C` [Ia-2, ((5R,6S)-5-((2R,3S,3aR,3bS,5′R,6S,7R,7aS,8aS)-7-(aminomethyl)-3,3b,5′-trimethyltetradecahydrospiro[indeno[2,1-b]furan-2,2′-pyran]-6-yl)-5-methyl-4,5,6,7-tetrahydro-1H-indazol-6-yl)methanol], the negative-log EC50 (pEC50) in data set [2] was 4.82 to 5.22. Also, in data set [1], the pIC50 was 4.82 to 5.82. For the same molecule, the “Scoring: % protection from 0-60 min” value in the data set with Mice (male, C57BL/6) is “D (“D” represents a % protection of 0 to 30%)”. The “Scoring: % of drug remaining after 60 minutes (PDR60)” value in data set [3] is reported as “A (“A” represents a PDR60 of 81 to 100%)”.

As for `CC[C@H](CC(O)[C@@H](C)[C@H]1CC[C@H]2[C@H](CO)[C@@H]([C@@]3(C)Cc4cn[nH]c4C[C@@H]3CO)CC[C@]12C)C(C)C` (stereo partly drawn) [Ia-9, (2S,5R)-5-ethyl-2-((1R,3aS,4S,5S,7aS)-4-(hydroxymethyl)-5-((5R,6S)-6-(hydroxymethyl)-5-methyl-4,5,6,7-tetrahydro-1H-indazol-5-yl)-7a-methyloctahydro-1H-inden-1-yl)-6-methylheptan-3-ol], the pIC50 in data set [1] was 4.82 to 5.82.

On to `C[C@]1([C@H]2CC[C@]3(C)C(O)CC[C@H]3[C@@H]2CO)Cc2cn[nH]c2C[C@@H]1CO` (some centres unmarked) [Ia-10a and Ia-10b], for which, in the data set with Mice (male, C57BL/6), the “Scoring: % protection from 0-60 min” value is given as “C (“C” represents a % protection of 31 to 60%)”. Moreover, the “Scoring: % of drug remaining after 60 minutes (PDR60)” value in data set [3] is given as “C (“C” represents a PDR60 of 31 to 60%)”.
